In patent US9950992B2, “Water soluble haloanilide calcium-release calcium channel inhibitory compounds and methods to control bone erosion and inflammation associated with arthritides” (West Virginia University, priority 2016, dated 2018):
Entries after “also recorded” stand apart in the source; their conditions may differ. Read-outs that look alike come from different tables or passages of the source.

What was measured:
CIA = conditions: 10 mg/kg, cited from earlier work
TRPM4 = TRPM4 (Homo sapiens, UniProt Q8TD43); conditions: cited from earlier work
[1] = Water solubility / hydrophobicity; type: physicochemical
[2] = tested on: human or murine osteoclasts; conditions: earlier study (ref 5), cited from earlier work
[3] = tested on: osteoclasts and CD3 T cells in tissue sections; assay: Antibody labeling of sections (anti-ATPa3/TCIRG osteoclasts, anti-CD3 T cells) in CIA mice; type: in vivo, mouse; conditions: high dose CIA/DCPA relative to CIA/placebo
Description: Antibodies used were, for TCIRGI, mouse monoclonal (clone 6H3) antibody (Sigma-Aldrich) at 1:100 dilution. For CD3, anti-CD3 mouse monoclonal antibody (PC3/188A) against synthetic peptide spanning amino acids 156-168 of the cytoplasmic domain of human CD3-ε chain was used, at 1:100 dilution. Briefly, sections were blocked in PBS with 2% hydrogen peroxide for 5 minutes and then in PBS with 2% BSA for two hours, then reacted overnight with antibodies at indicated concentrations in PBS with 0.01% tween 20, and after washing with biotinylated anti-mouse at 1:1000 dilution. Then streptavidin-horseradish peroxidase, and diaminobenzidine substrate were added. Hematoxylin and eosin counterstain was use to show tissue features. Imaging used a Nikon TE2000 inverted microscope, with 14-bit 2048×2048 pixel monochrome CCD and RGB filters to reconstruct color (Spot, Sterling Heights, Mich.).

[4] = humans, cited from earlier work
[5] = General health of treated CIA mice (weight, activity); type: in vivo, mouse; conditions: about three weeks of DCPA
Description: Male DBA/1 mice were used, from Harlan Laboratories, Frederick Md. […] Briefly, type II collagen (CII) was injected in complete Freund's adjuvant at 100 μg per animal (˜4 μg/kg) at day 1 and, after 21 days, a booster dose of 100 μg C II in Freund's incomplete adjuvant. Inflammation was apparent 4-8 days after the second dose, in 80% of treated joints. […] Mice were monitored for arthritis and scored in a blinded manner. Swelling of paws was be graded on scale from 0 to 4 indicating number of swollen digits. All paws were evaluated, so that the maximal arthritic index per mouse was 16. Additionally, hind paw swelling was measured using digital calipers on day 0, and each day on days 23-40. Analysis of the bones and joints for arthritis was done on H&E stained sections of hind paws, by blinded observation. This scored synovial expansion and inflammation, joint damage including pannus, and bone degradation, each on a scale of 0-3, with maximum score of 9. […] For histological analysis, two paws from each animal were analyzed separately and blindly, and are calculated as two specimens per animal; however, if averages are used with n=animal number, there was no effect on differences (not shown).

[6] = tested on: collagen-induced arthritis (CIA); assay: Collagen-induced arthritis (CIA) in mice, blinded arthritic index and paw swelling; type: in vivo, mouse; conditions: DCPA 21 mg/kg/day
Description: Effects on swelling, inflammatory cell invasion in joints, serum cytokines and bone erosion were measured.
Male DBA/1 mice were used, from Harlan Laboratories, Frederick Md. […] Briefly, type II collagen (CII) was injected in complete Freund's adjuvant at 100 μg per animal (˜4 μg/kg) at day 1 and, after 21 days, a booster dose of 100 μg C II in Freund's incomplete adjuvant. […] Mice were monitored for arthritis and scored in a blinded manner. Swelling of paws was be graded on scale from 0 to 4 indicating number of swollen digits. All paws were evaluated, so that the maximal arthritic index per mouse was 16. Additionally, hind paw swelling was measured using digital calipers on day 0, and each day on days 23-40. Analysis of the bones and joints for arthritis was done on H&E stained sections of hind paws, by blinded observation. This scored synovial expansion and inflammation, joint damage including pannus, and bone degradation, each on a scale of 0-3, with maximum score of 9.

[7] = tested on: collagen-induced arthritis (CIA); assay: Histology of H&E stained hind paw sections in CIA mice, blinded score; type: in vivo, mouse
Description: Male DBA/1 mice were used, from Harlan Laboratories, Frederick Md. […] Briefly, type II collagen (CII) was injected in complete Freund's adjuvant at 100 μg per animal (˜4 μg/kg) at day 1 and, after 21 days, a booster dose of 100 μg C II in Freund's incomplete adjuvant. […] Mice were monitored for arthritis and scored in a blinded manner. Swelling of paws was be graded on scale from 0 to 4 indicating number of swollen digits. All paws were evaluated, so that the maximal arthritic index per mouse was 16. Additionally, hind paw swelling was measured using digital calipers on day 0, and each day on days 23-40. Analysis of the bones and joints for arthritis was done on H&E stained sections of hind paws, by blinded observation. This scored synovial expansion and inflammation, joint damage including pannus, and bone degradation, each on a scale of 0-3, with maximum score of 9. […] For histological analysis, two paws from each animal were analyzed separately and blindly, and are calculated as two specimens per animal; however, if averages are used with n=animal number, there was no effect on differences (not shown).
Hind paws of animals were decalcified, paraffin embedded, cut, and stained with hematoxylin and eosin (FIGS. 2A-C). […] Therefore, blinded qualitative grading was used. […]

[8] = tested on: collagen-induced arthritis (CIA); assay: Micro-computed tomography and morphometry of paws in CIA mice; type: in vivo, mouse; conditions: high dose CIA/DCPA (21 mg)
Description: Analysis by micro-computed tomography was as described (14). In brief, paws fixed in Millonig's solution were scanned on a Viva CT40 instrument (Scanco, Bassersdorf, Switzerland) with three-dimensional reconstruction by the manufacturer's instrument-specific software. The scan section increment was 20 μm; 3-D reconstruction used a density cutoff of 211 mg/cm^3. Analysis of trabecular thickness and trabecular spacing used the plate model.

[9] = tested on: serum inflammatory cytokines; assay: Serum analysis for cytokines in CIA mice (V-PLEX panels); type: in vivo, mouse
Description: Heart blood at sacrifice, 40 days, was used for analysis. Plasma was separated by centrifiigation and frozen in aliquots at −20° C. until used. Production of anti-CII antibodies was evaluated by ELISA (Rheumera, Astarte Biologies, Redmond, Wash.). Production of cytokines was evaluated using V-PLEX panels in 96-well plates (Meso Scale Discovery, Rockville, Md.).

[10] = target: CRAC channel (STIM1/Orail) (Homo sapiens, UniProt Q96D31); conditions: by destabilizing STIM1/Orail interaction; Zhou et al., 2011; cited from earlier work
OCL formation = assay: OCL (osteoclast) formation assay; type: cell-based

Sequence of TRPM4 (Q8TD43 whole entry, species assumed): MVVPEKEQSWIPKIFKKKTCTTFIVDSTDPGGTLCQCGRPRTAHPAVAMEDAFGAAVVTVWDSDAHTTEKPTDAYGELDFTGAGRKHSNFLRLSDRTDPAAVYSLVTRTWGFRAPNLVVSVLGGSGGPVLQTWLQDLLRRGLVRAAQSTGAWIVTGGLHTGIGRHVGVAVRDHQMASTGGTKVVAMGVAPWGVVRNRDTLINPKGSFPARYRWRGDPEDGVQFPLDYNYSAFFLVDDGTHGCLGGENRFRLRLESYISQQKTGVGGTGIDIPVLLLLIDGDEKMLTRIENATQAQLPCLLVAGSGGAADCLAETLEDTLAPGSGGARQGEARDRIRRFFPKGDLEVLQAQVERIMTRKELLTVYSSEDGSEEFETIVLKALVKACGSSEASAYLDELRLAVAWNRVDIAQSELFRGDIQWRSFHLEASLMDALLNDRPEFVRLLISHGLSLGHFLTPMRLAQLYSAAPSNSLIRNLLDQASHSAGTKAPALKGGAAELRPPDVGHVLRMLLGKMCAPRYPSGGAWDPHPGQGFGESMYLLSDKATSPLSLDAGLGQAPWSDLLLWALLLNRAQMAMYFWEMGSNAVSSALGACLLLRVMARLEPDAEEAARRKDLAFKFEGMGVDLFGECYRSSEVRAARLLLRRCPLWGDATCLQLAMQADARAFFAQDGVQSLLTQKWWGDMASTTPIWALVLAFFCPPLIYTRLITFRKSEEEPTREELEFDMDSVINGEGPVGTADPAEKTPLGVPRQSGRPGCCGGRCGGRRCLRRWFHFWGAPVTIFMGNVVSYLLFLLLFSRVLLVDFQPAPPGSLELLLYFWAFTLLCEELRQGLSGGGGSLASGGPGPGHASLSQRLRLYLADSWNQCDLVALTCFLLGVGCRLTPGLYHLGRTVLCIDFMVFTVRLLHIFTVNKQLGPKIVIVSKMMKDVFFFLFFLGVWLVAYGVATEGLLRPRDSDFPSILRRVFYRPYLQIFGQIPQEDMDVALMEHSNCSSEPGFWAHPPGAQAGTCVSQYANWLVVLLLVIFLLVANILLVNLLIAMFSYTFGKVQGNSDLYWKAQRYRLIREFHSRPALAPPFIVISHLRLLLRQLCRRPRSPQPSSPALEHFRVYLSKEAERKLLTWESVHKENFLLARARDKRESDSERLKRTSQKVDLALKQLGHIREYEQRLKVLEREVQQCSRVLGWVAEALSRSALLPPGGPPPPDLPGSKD
Sequence of CRAC channel (STIM1/Orail) (Q96D31 whole entry): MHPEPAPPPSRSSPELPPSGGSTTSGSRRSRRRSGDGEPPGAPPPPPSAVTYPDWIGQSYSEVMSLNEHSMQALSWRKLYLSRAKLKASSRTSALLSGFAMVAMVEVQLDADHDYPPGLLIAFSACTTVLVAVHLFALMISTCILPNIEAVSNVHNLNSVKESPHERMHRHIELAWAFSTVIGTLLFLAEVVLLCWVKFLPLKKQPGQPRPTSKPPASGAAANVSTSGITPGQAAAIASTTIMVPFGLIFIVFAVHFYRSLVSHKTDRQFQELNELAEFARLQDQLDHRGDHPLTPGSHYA

For `Cc1nnsc1C(=O)Nc1ccc(-n2nc(C(F)(F)F)cc2C(F)(F)F)cc1` [BTP-2, 4-methy-4-[3,5-bis(trifluorometliyl)-1H-pyrazol-1-yl]-1,2,3-thiadiazole-5-carboxanilide], the “inflammatory cytokines IL1, IL6 and TNF-α” value (CIA; 10 days after induction) is given as “near-baseline levels”, the “effect on CIA” value (CIA) is given as “suppressed CIA” and the “concentration suppressing cytokines including 1L2 and calcium influx by TRPM4” value (TRPM4) is given as “low nanomolar concentrations”.
With `O=C(O)CC(=O)Nc1ccc(Cl)c(Cl)c1` [DCOPA, 3-(3,4-dichloroanilino)-3-oxopropanoic acid] the “water solubility compared with DCPA” value [1] was “more water soluble compound than DCPA”.
In the case of `CCC(=O)Nc1ccc(Cl)c(Cl)c1` [DCPA, N-(3,4-dichlorophenyl)propanamide], the “osteoclast differentiation / formation in vitro” value [2] is listed as “inhibits osteoclast formation in vitro”, the “osteoclast differentiation / formation in vitro” value ([2]; listed as 3,4-dichloropropionaniline) is listed as “reduced differentiation of bone degrading osteoclasts” and the “osteoclast surface area (ATPa3 labeling)” value [3] is listed as “large and statistically significant reduction”. For the same compound, the “toxicity of intermittent exposure in mg/kg quantities” value [4] was “minimal apparent toxicity”, the “dose that can cause fatal methemoglobinemia” value ([4]; massive doses) was 4000 to 5000 mg/kg and the “adverse effects on animal weight or activity” value [5] was “no adverse effects”. For the same compound, the “overall swelling of joints” value [6] was “reduced by a similar amount”, the “time of maximal effect after collagen booster” value [6] was 12 to 17 days and the “reduction of bone and cartilage damage in sections of animal feet” value ([7]; DCPA 21 mg/kg/day) was −50%. The histological damage score ([7]; ankle bone of one animal, high dose CIA/DCPA (21 mg DCPA), 40 days, scale 0-9) was 4, the “bone volume/total volume by micro-CT” value ([8]; p=0.03 vs CIA/placebo) was “statistically greater than CIA/placebo animals” and the “bone density by micro-CT” value ([8]; sacrifice day 40) was “indistinguishable from untreated controls”. The “effect on serum cytokines (TNF-α, IL-1, IL-6, CXCL1, IFN-γ)” value ([9]; DCPA 21 mg/kg/day, day 40 serum, vs CIA/placebo) was “no effect; also recorded: did not affect”, the “effect on cytokine production of IL-12p70 or IL-10” value ([9]; DCPA, serum of CIA mice) was “did not significantly affect” and the CRAC channel activation [10] was “inhibits CRAC channel activation”.
For `CN(C(=O)CC(=O)O)c1ccc(Cl)c(Cl)c1` [N-MeDCOPA], the “inhibition of OCL formation” value (OCL formation; 100 μM) was “shows inhibition of OCL formation”.
With N-methyl-DCPA [N-MeDCPA] the hydrophobicity [1] was “very hydrophobic”, the “toxicity compared with DCPA” value (OCL formation; OCL assay findings) was “less toxic than DCPA” and the “effect in OCL assay compared with DCPA” value (OCL formation; same doses as DCPA, took longer) was “looked as good as DCPA”.
